pIC50: −log10 of the molar value.

We go through 20 molecules from patent publication US10123995B2, “Factor XIa inhibitors” (MERCK SHARP & DOHME CORP., priority 2015, dated 2018).

Experiment [1] concerns the target purified human Factor XIa (Homo sapiens (Human), UniProt P03951). Briefly: Factor XIa Assay. Type of experiment: biochemical. Particulars: Factor XIa inhibition; substrate Z-Gly-Pro-Arg-AFC, pH 7.4; read-out: hFXIa IC50. As for the experimental part: The effectiveness of a compound of the present invention as an inhibitor of Coagulation Factor XIa can be determined using a relevant purified serine protease, and an appropriate synthetic substrate. The rate of hydrolysis of the chromogenic or fluorogenic substrate by the relevant serine protease was measured both in the absence and presence of compounds of the present invention. Assays were conducted at room temperature or at 37° C. […] A decrease in the rate of fluorescence change in the presence of inhibitor is indicative of enzyme inhibition. Such methods are known to one skilled in the art. […]
Factor XIa determinations were made in 50 mM HEPES buffer at pH 7.4 containing 150 mM NaCl, 5 mM CaCl2, and 0.1% PEG 8000 (polyethylene glycol; JT Baker or Fisher Scientific). Determinations were made using purified human Factor XIa at a final concentration of 40 pM (Sekisui Diagnostics) and the synthetic substrate, Z-Gly-Pro-Arg-AFC, TFA salt (Sigma #C0980) at a concentration of 100 μM.
Activity assays were performed by diluting a stock solution of substrate at least tenfold to a final concentration ≤0.1 Km into a solution containing enzyme or enzyme equilibrated with inhibitor. Times required to achieve equilibration between enzyme and inhibitor were determined in control experiments. Initial velocities of product formation in the absence (Vo) or presence of inhibitor (Vi) were measured. Assuming competitive inhibition, and that unity is negligible compared Km/[S], [I]/e, and [I]/e (where [S], [I], and e respectively represent the total concentrations, of substrate, inhibitor and enzyme), the equilibrium constant (Ki) for dissociation of the inhibitor from the enzyme can be obtained from the dependence of Vo/Vi on [I] shown in the following equation. Vo/Vi=1+[I]/Ki

Experiment [2] addresses purified Human plasma kallikrein (Homo sapiens (Human), UniProt P03952). Briefly: Kallikrein Assay. The settings on record: table titled Kalikrein inhibition (column head prints hFXIa), substrate Acetyl-K-P-R-AFC, pH 7.4. In kind it is biochemical. As for the experimental part:
The effectiveness of a compound of the present invention as an inhibitor of Kallikrein can be determined using a relevant purified serine protease, and an appropriate synthetic substrate. The rate of hydrolysis of the chromogenic or fluorogenic substrate by the relevant serine protease was measured both in the absence and presence of compounds of the present invention. Assays were conducted at room temperature or at 37° C. […] A decrease in the rate of fluorescence change in the presence of inhibitor is indicative of enzyme inhibition. Such methods are known to one skilled in the art. The results of this assay are expressed as the inhibitory constant, Ki.
Kallikrein determinations were made in 50 mM HEPES buffer at pH 7.4 containing 150 mM NaCl, 5 mM CaCl2, and 0.1% PEG 8000 (polyethylene glycol; Fisher Scientific). Determinations were made using purified Human plasma kallikrein at a final concentration of 0.5 nM (Enzyme Research Laboratories) and the synthetic substrate, Acetyl-K-P-R-AFC (Sigma # C6608) at a concentration of […].
Activity assays were performed by diluting a stock solution of substrate at least tenfold to a final concentration ≤0.2 Km into a solution containing enzyme or enzyme equilibrated with inhibitor. Times required to achieve equilibration between enzyme and inhibitor were determined in control experiments. The reactions were performed under linear progress curve conditions and fluorescence increase measured at 405 Ex/510 Em nm. Values were converted to percent inhibition of the control reaction (after subtracting 100% Inhibition value). IC50 was determined by inflection point from a four parameter logistic curve fit. Ki was calculated using the Cheng Prusoff equation, Ki=IC50/(1+([S]/Km)).

Chain of purified Human plasma kallikrein (P03952 391-638): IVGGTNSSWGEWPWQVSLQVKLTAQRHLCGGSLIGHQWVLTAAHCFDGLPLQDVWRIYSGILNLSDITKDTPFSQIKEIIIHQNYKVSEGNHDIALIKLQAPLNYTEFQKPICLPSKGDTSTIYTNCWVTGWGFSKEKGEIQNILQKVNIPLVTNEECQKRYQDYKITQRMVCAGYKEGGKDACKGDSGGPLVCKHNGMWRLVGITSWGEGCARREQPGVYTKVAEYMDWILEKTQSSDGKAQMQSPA
Chain of purified Human plasma kallikrein (P03952 20-390 partner): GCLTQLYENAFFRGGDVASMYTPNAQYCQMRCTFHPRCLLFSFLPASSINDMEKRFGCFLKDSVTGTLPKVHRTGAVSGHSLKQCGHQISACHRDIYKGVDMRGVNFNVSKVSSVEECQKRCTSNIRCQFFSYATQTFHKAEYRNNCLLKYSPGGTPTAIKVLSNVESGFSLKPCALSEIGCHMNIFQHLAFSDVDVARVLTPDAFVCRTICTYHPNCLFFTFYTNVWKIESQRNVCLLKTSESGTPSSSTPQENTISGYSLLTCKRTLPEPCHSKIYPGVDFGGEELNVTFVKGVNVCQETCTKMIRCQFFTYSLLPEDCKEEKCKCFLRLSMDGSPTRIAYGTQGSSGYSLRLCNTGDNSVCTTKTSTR
Chain of purified human Factor XIa (P03951 388-625): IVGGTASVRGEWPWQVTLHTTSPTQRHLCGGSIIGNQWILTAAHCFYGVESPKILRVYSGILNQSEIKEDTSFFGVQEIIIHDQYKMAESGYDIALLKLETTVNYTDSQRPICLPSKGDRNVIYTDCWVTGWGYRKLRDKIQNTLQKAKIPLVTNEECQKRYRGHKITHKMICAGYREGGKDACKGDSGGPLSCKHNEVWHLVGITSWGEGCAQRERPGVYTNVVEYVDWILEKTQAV
Chain of purified human Factor XIa (P03951 19-387 partner): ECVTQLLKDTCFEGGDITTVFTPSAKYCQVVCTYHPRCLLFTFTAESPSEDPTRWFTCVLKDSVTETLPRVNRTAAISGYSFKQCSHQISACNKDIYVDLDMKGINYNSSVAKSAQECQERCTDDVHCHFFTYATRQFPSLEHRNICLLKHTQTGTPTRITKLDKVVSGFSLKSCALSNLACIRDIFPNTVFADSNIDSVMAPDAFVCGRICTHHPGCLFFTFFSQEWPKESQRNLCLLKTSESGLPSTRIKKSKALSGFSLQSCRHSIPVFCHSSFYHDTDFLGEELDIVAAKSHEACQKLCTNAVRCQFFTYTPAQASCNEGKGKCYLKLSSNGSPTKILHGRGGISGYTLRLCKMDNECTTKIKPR

What is called pIC50 is the IC50 on a negative log10 scale, so that one unit is a factor of ten. Turning to `O=C(O)c1ccc(NC(=O)C2CC(O)c3cc(-c4cc(Cl)ccc4-n4cnnn4)c[n+]([O-])c32)cc1` (racemic) [Example 6, 4-[({3-[5-chloro-2-(1H-tetrazol-1-yl)phenyl]-5-hydroxy-1-oxido-6,7-dihydro-5H-cyclopenta[b]pyridin-7-yl}carbonyl)amino]benzoic acid], the values for the pIC50 in experiment [1] and in experiment [2] were 7.98 and 6.15, respectively.

As for `O=C(O)c1ccc(NC(=O)C2CC(O)c3cc(-c4cc(Cl)ccc4-n4cnnn4)c[n+]([O-])c32)cc1` (single isomer, unassigned) [Example 5], the pIC50 was 8.44 in experiment [1] and 6.30 in experiment [2].

`O=C(O)c1ccc(NC(=O)C2CC(O)c3cc(-c4cc(Cl)ccc4-n4cnnn4)c[n+]([O-])c32)cc1` (single isomer, unassigned) [Example 7]: the pIC50 in experiment [1] was 8.07; in experiment [2] it was 5.77. `O=C(O)c1ccc(NC(=O)C2(O)CC(O)c3cc(-c4cc(Cl)ccc4-n4cnnn4)c[n+]([O-])c32)cc1` (single isomer, unassigned) [Example 9, 4-[({3-[5-Chloro-2-(1H-tetrazol-1-yl)phenyl]-5,7-dihydroxy-1-oxido-6,7-dihydro-5H-cyclopenta[b]pyridin-7-yl}carbonyl)amino]benzoic acid]: the pIC50 in experiment [1] was 8.54; in experiment [2], 6.34. Take `O=C(O)c1ccc(NC(=O)C2(O)CC(O)c3cc(-c4cc(Cl)ccc4-n4cnnn4)c[n+]([O-])c32)cc1` (single isomer, unassigned) [Example 10, 4-[({3-[5-Chloro-2-(1H-tetrazol-1-yl)phenyl]-5,7-dihydroxy-1-oxido-6,7-dihydro-5H-cyclopenta[b]pyridin-7-yl}carbonyl)amino]benzoic acid]: the values for the pIC50 in experiment [1] and in experiment [2] were 8.57 and 6.28, respectively. `O=C(O)c1ccc(NC(=O)C2(O)CC(O)c3cc(-c4cc(Cl)ccc4-n4cnnn4)c[n+]([O-])c32)cc1` (single isomer, unassigned) [Example 11, 4-[({3-[5-Chloro-2-(1H-tetrazol-1-yl)phenyl]-5,7-dihydroxy-1-oxido-6,7-dihydro-5H-cyclopenta[b]pyridin-7-yl}carbonyl)amino]benzoic acid]: the pIC50 in experiment [1] is 6.98. Same read-out and setting: the result for `O=C(O)c1ccc(NC(=O)C2(O)CC(O)c3cc(-c4cc(Cl)ccc4-n4cnnn4)c[n+]([O-])c32)cc1` (single isomer, unassigned) [Example 12, 4-[({3-[5-Chloro-2-(1H-tetrazol-1-yl)phenyl]-5,7-dihydroxy-1-oxido-6,7-dihydro-5H-cyclopenta[b]pyridin-7-yl}carbonyl)amino]benzoic acid] reads 6.69. On to `O=C(O)c1ccc(NC(=O)C2(O)CC(F)c3cc(-c4cc(Cl)ccc4-n4cnnn4)c[n+]([O-])c32)cc1` (single isomer, unassigned) [Example 13, 4-[({3-[5-Chloro-2-(1H-tetrazol-1-yl)phenyl]-5-fluoro-7-hydroxy-1-oxido-6,7-dihydro-5H-cyclopenta[b]pyridin-7-yl}carbonyl)amino]benzoic acid], for which the pIC50 is 8.43 in experiment [1] and 6.70 in experiment [2]. For `O=C(O)c1ccc(NC(=O)C2(O)CC(F)c3cc(-c4cc(Cl)ccc4-n4cnnn4)c[n+]([O-])c32)cc1` (single isomer, unassigned) [Example 14, 4-[({3-[5-Chloro-2-(1H-tetrazol-1-yl)phenyl]-5-fluoro-7-hydroxy-1-oxido-6,7-dihydro-5H-cyclopenta[b]pyridin-7-yl}carbonyl)amino]benzoic acid], the pIC50 in experiment [1] is 6.66.

Consider `O=C(O)c1ccc(NC(=O)C2(F)CC(F)c3cc(-c4cc(Cl)ccc4-n4cnnn4)c[n+]([O-])c32)cc1` (single isomer, unassigned) [Example 15, 4-[({3-[5-Chloro-2-(1H-tetrazol-1-yl)phenyl]-5,7-difluoro-1-oxido-6,7-dihydro-5H-cyclopenta[b]pyridin-7-yl}carbonyl)amino]benzoic acid], for which the pIC50 is 7.85 in experiment [1] and 5.31 in experiment [2]. Take `O=C(O)c1ccc(NC(=O)C2(F)CC(F)c3cc(-c4cc(Cl)ccc4-n4cnnn4)c[n+]([O-])c32)cc1` (single isomer, unassigned) [Example 16, 4-[({3-[5-Chloro-2-(1H-tetrazol-1-yl)phenyl]-5,7-difluoro-1-oxido-6,7-dihydro-5H-cyclopenta[b]pyridin-7-yl}carbonyl)amino]benzoic acid]: the pIC50 in experiment [1] was 7.07. Same read-out and setting: as for `O=C(O)c1ccc(NC(=O)C2(F)CC(F)c3cc(-c4cc(Cl)ccc4-n4cnnn4)c[n+]([O-])c32)cc1` (single isomer, unassigned) [Example 17, 4-[({3-[5-Chloro-2-(1H-tetrazol-1-yl)phenyl]-5,7-difluoro-1-oxido-6,7-dihydro-5H-cyclopenta[b]pyridin-7-yl}carbonyl)amino]benzoic acid], the figure is 5.35. `O=C(O)c1ccc(NC(=O)C2(F)CC(F)c3cc(-c4cc(Cl)ccc4-n4cnnn4)c[n+]([O-])c32)cc1` (single isomer, unassigned) [Example 18, 4-[({3-[5-Chloro-2-(1H-tetrazol-1-yl)phenyl]-5,7-difluoro-1-oxido-6,7-dihydro-5H-cyclopenta[b]pyridin-7-yl}carbonyl)amino]benzoic acid]: the pIC50 in experiment [1] is 5.02. As to `O=C(O)c1ccc(NC(=O)C2(CC3CC3)CCc3cc(-c4cc(Cl)ccc4-n4cnnn4)c[n+]([O-])c32)cc1` (single isomer, unassigned) [Example 21, 7-((4-carboxyphenyl)carbamoyl)-3-(5-chloro-2-(1H-tetrazol-1-yl)phenyl)-7-(cyclopropylmethyl)-6,7-dihydro-5H-cyclopenta[b]pyridine 1-oxide], the pIC50 in experiment [1] was below 6.06.

For the molecule `O=C(O)c1ccc(NC(=O)C2(CC3CC3)CCc3cc(-c4cc(Cl)ccc4-n4cnnn4)c[n+]([O-])c32)cc1` (single isomer, unassigned) [Example 22, 7-((4-carboxyphenyl)carbamoyl)-3-(5-chloro-2-(1H-tetrazol-1-yl)phenyl)-7-(cyclopropylmethyl)-6,7-dihydro-5H-cyclopenta[b]pyridine 1-oxide], the pIC50 in experiment [1] was 6.75. `O=C(O)c1ccc(NC(=O)C2CCc3cc(-c4cc(Cl)ccc4-n4cnnn4)c[n+]([O-])c32)cc1` (stereo not shown) [Example 1, 4-[({3-[5-chloro-2-(1H-tetrazol-1-yl)phenyl]-1-oxido-6,7-dihydro-5H-cyclopenta[b]pyridin-7-yl}carbonyl)amino]benzoic acid]: the pIC50 in experiment [1] was 8.42; in experiment [2], 6.33.

For `O=C(NC12CCC(C(=O)O)(CC1)CC2)C1CCc2cc(-c3cc(Cl)ccc3-n3cnnn3)c[n+]([O-])c21` (stereo not shown) [Example 2, 7-((4-carboxybicyclo[2.2.2]octan-1-yl)carbamoyl)-3-(5-chloro-2-(1H-tetrazol-1-yl)phenyl)-6,7-dihydro-5H-cyclopenta[b]pyridine=1-oxide], in experiment [1], the pIC50 was 5.70. Consider `O=C(O)c1ccc(NC(=O)[C@H]2CCc3cc(-c4c(F)ccc(Cl)c4F)c[n+]([O-])c32)cc1` [Example 3, 4-({[(7S)-3-(3-chloro-2,6-difluorophenyl)-1-oxido-6,7-dihydro-5H-cyclopenta[b]pyridin-b7-yl]carbonyl}amino)benzoic acid], for which the pIC50 in experiment [1] is 5.53.

As for `O=C(O)c1ccc(NC(=O)[C@@H]2CCc3cc(-c4c(F)ccc(Cl)c4F)c[n+]([O-])c32)cc1` [Example 4, 4-({[(7R)-3-(3-chloro-2,6-difluorophenyl)-1-oxido-6,7-dihydro-5H-cyclopenta[b]pyridin-7-yl]carbonyl}amino)benzoic acid], the pIC50 in experiment [1] was 5.63. For the molecule `COC(=O)Nc1ccc(C(=O)NC2CCc3cc(-c4cc(Cl)ccc4-n4cnnn4)c[n+]([O-])c32)cc1` (stereo not shown) [Example 20, 3-(5-Chloro-2-(H-tetrazol-1-yl)phenyl)-7-(4-((methoxycarbonyl)amino)benzamido)-6,7-dihydro-5H-cyclopenta[b]pyridine 1-oxide], the pIC50 in experiment [1] was 6.05.
